target: Coagulation factor XII (Homo sapiens) (UniProt P00748); assay: human FXIIa protease inhibitors, dose response, biochemical, confirmation of 1536-well hits (AID 852); conditions: purified human plasma FXIIa, fluorogenic AMC substrate, 384-well, 2 h
Sequence (P00748 20-372 limits assumed): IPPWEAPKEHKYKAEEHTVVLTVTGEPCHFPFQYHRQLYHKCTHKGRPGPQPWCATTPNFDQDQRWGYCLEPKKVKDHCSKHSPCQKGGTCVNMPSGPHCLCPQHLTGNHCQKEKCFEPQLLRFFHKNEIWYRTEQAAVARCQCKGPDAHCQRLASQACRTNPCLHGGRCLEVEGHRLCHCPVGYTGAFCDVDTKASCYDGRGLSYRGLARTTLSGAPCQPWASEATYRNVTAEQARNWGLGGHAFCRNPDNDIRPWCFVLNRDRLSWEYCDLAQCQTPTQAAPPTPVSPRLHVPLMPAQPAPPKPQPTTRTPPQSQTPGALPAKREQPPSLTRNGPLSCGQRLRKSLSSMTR
Sequence (P00748 373-615 limits assumed): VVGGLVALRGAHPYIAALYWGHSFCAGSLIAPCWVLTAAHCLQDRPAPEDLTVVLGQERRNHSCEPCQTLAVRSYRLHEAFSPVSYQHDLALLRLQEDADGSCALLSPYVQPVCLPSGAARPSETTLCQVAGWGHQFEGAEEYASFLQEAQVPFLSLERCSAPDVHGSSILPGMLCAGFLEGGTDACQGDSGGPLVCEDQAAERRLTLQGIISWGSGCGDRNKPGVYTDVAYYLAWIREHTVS

First: Cc1ccc(C(=O)n2nc(-c3cccnc3)nc2N)cc1
Second: O=C(Oc1ccc(Cl)c2cccnc12)c1ccco1
The IC50 of the first is 27-fold lower: 0.796 µM for the first, 21.6 µM for the second. The first is the more potent here.

With `O=C(Oc1ccc2c3c(c(=O)oc2c1)CCC3)c1ccco1` the IC50 was 6.22 µM.

From PubChem BioAssay AID852 (PCMD, 2007)
